# Reference: patent US9932350B2, “Inhibitors of IRAK4 activity” (MERCK SHARP & DOHME CORP., priority 2014, dated 2018)
# Target: GST tagged IRAK4 (Homo sapiens (Human), UniProt Q9NWZ3)
# Assay: IRAK4 Kinase Assay (IMAP fluorescence polarization)
# Format: biochemical
# Settings: 0.5 nM GST tagged IRAK4, 100 μM ATP, 30 minutes at 25° C.
# Protocol: The kinase activity of IRAK4 is determined by its ability to catalyze the phosphorylation of a fluorescent polypeptide substrate. The extent of phosphorylation is measured using the IMAP technology (Molecular Devices) where the phosphorylated fluorescent substrate binds to the large M(III)-based nanoparticles which reduces the rotational speed of the substrate and thus increases its fluorescent polarization (FP).
# 20 μL reaction mixture contains 10 mM TriHCl, pH 7.2, 0.5 nM GST tagged IRAK4 (SignalChem), 100 nM fluorescent peptide substrate (RP7030, Molecular Devices), 100 μM ATP, 1 mM DDT, 1 mM MgCl2, and 0.01% Tween 20. The reaction is initiated by the addition of ATP. After incubation for 30 minutes at 25° C., 60 μL of Progressive IMAP Reagent (Molecular Devices) is added to stop the reaction. Change in RP7030's FP is determined by a FP reader (Analyst HT, LJL BioSystems).
# GST tagged IRAK4, sequence (Q9NWZ3 whole entry): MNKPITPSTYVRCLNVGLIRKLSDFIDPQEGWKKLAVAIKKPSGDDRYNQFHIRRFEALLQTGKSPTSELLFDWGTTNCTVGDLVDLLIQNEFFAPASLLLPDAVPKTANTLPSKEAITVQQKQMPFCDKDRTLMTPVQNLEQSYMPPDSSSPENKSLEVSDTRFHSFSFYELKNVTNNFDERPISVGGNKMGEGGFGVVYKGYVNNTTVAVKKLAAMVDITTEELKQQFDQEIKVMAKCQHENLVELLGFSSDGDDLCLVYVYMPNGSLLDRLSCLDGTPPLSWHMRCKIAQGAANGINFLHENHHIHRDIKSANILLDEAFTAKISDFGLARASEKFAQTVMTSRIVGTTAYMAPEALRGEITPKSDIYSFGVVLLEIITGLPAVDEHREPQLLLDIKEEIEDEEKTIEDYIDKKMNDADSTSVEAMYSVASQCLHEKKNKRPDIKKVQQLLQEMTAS
row,Structure (SMILES),IC50 [nM]
1,"CC(C)[C@@H]1COCCN1[C@H]1CC[C@H](Nc2ncnc3ccc(C#N)cc23)CC1 [Example 3-52, 4-({trans-4-[(3R)-3-(propan-2-yl)morpholin-4-yl]cyclohexyl}amino) quinazoline-6-carbonitrile]",26
2,"N#Cc1ccc2ncnc(N[C@H]3CC[C@H](N4CCCC(F)(F)CC4)CC3)c2c1 [Example 3-53, 4-{[trans-4-(4,4-difluoroazepan-1-yl)cyclohexyl]amino} quinazoline-6-carbonitrile]",12
3,"N#Cc1ccc2ncnc(N[C@H]3CC[C@H](N4CCC(O)C4)CC3)c2c1 (stereo partly drawn) [Example 3-55, 4-{[trans-4-(3-hydroxypyrrolidin-1-yl)cyclohexyl]amino} quinazoline-6-carbonitrile]",15
4,"CN(C)[C@H]1CC[C@H](Nc2ncnc3ccc(OCCCC(N)=O)cc23)CC1 [Example 4-1, 4-[(4-{[Trans-4-(dimethylamino)cyclohexyl]amino}quinazolin-6-yl)oxy]butanamide]",525
5,"N#Cc1cc2c(N[C@H]3CC[C@H](N4CCOCC4)CC3)ncnc2cc1F [Example 5-1, 7-Fluoro-4-{[trans-4-(morpholin-4-yl)cyclohexyl]amino}quinazoline-6-carbonitrile]",27
6,"Cc1c(C#N)ccc2ncnc(N[C@H]3CC[C@H](N4CCOCC4)CC3)c12 [Example 5-2, 5-methyl-4-{[trans-4-(morpholin-4-yl)cyclohexyl]amino} quinazoline-6-carbonitrile]",52
7,"CC(=O)N1CCN([C@H]2CC[C@H](Nc3ncnc4ccc(C#N)cc34)CC2)CC1 [Example 6-2, 4-{[trans-4-(4-acetylpiperazin-1-yl)cyclohexyl]amino} quinazoline-6-carbonitrile]",11
8,"CC(C)(F)C(=O)N1CCN([C@H]2CC[C@H](Nc3ncnc4ccc(C#N)cc34)CC2)CC1 [Example 6-5, 4-({trans-4-[4-(2-fluoro-2-methylpropanoyl)piperazin-1-yl]cyclohexyl}amino) quinazoline-6-carbonitrile]",12
9,"CC(F)(F)C(=O)N1CCN([C@H]2CC[C@H](Nc3ncnc4ccc(C#N)cc34)CC2)CC1 [Example 6-6, 4-({trans-4-[4-(2,2-difluoropropanoyl)piperazin-1-yl]cyclohexyl}amino) quinazoline-6-carbonitrile]",16
10,"CC(F)C(=O)N1CCN([C@H]2CC[C@H](Nc3ncnc4ccc(C#N)cc34)CC2)CC1 (stereo partly drawn) [Example 6-7, 4-({trans-4-[4-(2-fluoropropanoyl)piperazin-1-yl]cyclohexyl}amino) quinazoline-6-carbonitrile]",14
11,"CC1(C(=O)N2CCN([C@H]3CC[C@H](Nc4ncnc5ccc(C#N)cc45)CC3)CC2)CC1 [Example 6-8, 4-[(trans-4-{4-[(1-methylcyclopropyl)carbonyl]piperazin-1-yl}cyclohexyl)amino] quinazoline-6-carbonitrile]",15
12,"CC1(C(=O)N2CCN([C@H]3CC[C@H](Nc4ncnc5ccc(C#N)cc45)CC3)CC2)COC1 [Example 6-9, 4-[(trans-4-{4-[(3-methyloxetan-3-yl)carbonyl]piperazin-1-yl}cyclohexyl)amino] quinazoline-6-carbonitrile]",14
13,"COCC(=O)N1CCN([C@H]2CC[C@H](Nc3ncnc4ccc(C#N)cc34)CC2)CC1 [Example 6-10, 4-({trans-4-[4-(methoxyacetyl)piperazin-1-yl]cyclohexyl}amino) quinazoline-6-carbonitrile]",16
14,"N#Cc1ccc2ncnc(N[C@H]3CC[C@H](N4CCN(C(=O)[C@@H]5CCCO5)CC4)CC3)c2c1 [Example 6-11, 4-[(trans-4-{4-[(2S)-tetrahydrofuran-2-ylcarbonyl]piperazin-1-yl}cyclohexyl)amino] quinazoline-6-carbonitrile]",11
15,"N#Cc1ccc2ncnc(N[C@H]3CC[C@H](N4CCN(C(=O)C(F)F)CC4)CC3)c2c1 [Example 6-12, 4-({trans-4-[4-(difluoroacetyl)piperazin-1-yl]cyclohexyl}amino) quinazoline-6-carbonitrile]",27
16,"N#Cc1ccc2ncnc(N[C@H]3CC[C@H](N4CCN(C(=O)C5CC5(F)F)CC4)CC3)c2c1 (stereo partly drawn) [Example 6-14, 4-[(trans-4-{4-[(2,2-difluorocyclopropyl)carbonyl]piperazin-1-yl}cyclohexyl)amino] quinazoline-6-carbonitrile]",13
17,"N#Cc1ccc2ncnc(N[C@H]3CC[C@H](N4CCN(C(=O)CF)CC4)CC3)c2c1 [Example 6-19, 4-({trans-4-[4-(fluoroacetyl)piperazin-1-yl]cyclohexyl}amino) quinazoline-6-carbonitrile]",23
18,"N#Cc1ccc2ncnc(N[C@H]3CC[C@H](N4CCN(C(=O)C5CC(O)C5)CC4)CC3)c2c1 (stereo partly drawn) [Example 6-21, 4-[(trans-4-{4-[(3-hydroxycyclobutyl)carbonyl]piperazin-1-yl}cyclohexyl)amino] quinazoline-6-carbonitrile]",10
19,"N#Cc1ccc2ncnc(N[C@H]3CC[C@H](N4CCN(C(=O)[C@H]5CCCO5)CC4)CC3)c2c1 [Example 6-23, 4-[(trans-4-{4-[(2R)-tetrahydrofuran-2-ylcarbonyl]piperazin-1-yl}cyclohexyl)amino] quinazoline-6-carbonitrile]",17
20,"C[C@]1(Nc2ncnc3ccc(C#N)cc23)CC[C@H](N2CCOCC2)CC1 [Example 7-1, 4-{[Trans-1-methyl-4-(morpholin-4-yl)cyclohexyl]amino}quinazoline-6-carbonitrile]",98
21,"C[C@]1(Nc2ncnc3ccc(C#N)cc23)CC[C@H](N2CCC(F)CC2)CC1 [Example 7-2, 4-{[trans-4-(4-fluoropiperidin-1-yl)-1-methylcyclohexyl]amino} quinazoline-6-carbonitrile]",74
22,"C[C@]1(Nc2ncnc3ccc(C#N)cc23)CC[C@H](N2CCC(O)C2)CC1 (stereo partly drawn) [Example 7-3, 4-{[trans-4-(3-hydroxypyrrolidin-1-yl)-1-methylcyclohexyl]amino} quinazoline-6-carbonitrile]",43

# More lines, now with the values ahead:
row,IC50 [nM],Structure (SMILES)
1,3,"N#Cc1ccc2ncnc(N[C@H]3CC[C@H](N4CCC(F)(F)CC4)CC3)c2c1 [Example 3-54, 4-{[trans-4-(4,4-difluoropiperidin-1-yl)cyclohexyl]amino} quinazoline-6-carbonitrile]"
2,3,"N#Cc1ccc2ncnc(N[C@H]3CC[C@H](N4CCN(C(=O)C5CC5)CC4)CC3)c2c1 [Example 6-1, 4-({Trans-4-[4-(cyclopropylcarbonyl)piperazin-1-yl]cyclohexyl}amino)quinazoline-6-carbonitrile]"
3,8,"CC(C)(C)C(=O)N1CCN([C@H]2CC[C@H](Nc3ncnc4ccc(C#N)cc34)CC2)CC1 [Example 6-3, 4-({trans-4-[4-(2,2-dimethylpropanoyl)piperazin-1-yl]cyclohexyl}amino) quinazoline-6-carbonitrile]"
4,9,"CC(C)(CF)C(=O)N1CCN([C@H]2CC[C@H](Nc3ncnc4ccc(C#N)cc34)CC2)CC1 [Example 6-4, 4-({trans-4-[4-(3-fluoro-2,2-dimethylpropanoyl)piperazin-1-yl]cyclohexyl}amino) quinazoline-6-carbonitrile]"
5,10,"N#Cc1ccc2ncnc(N[C@H]3CC[C@H](N4CCN(C(=O)C5CC(F)C5)CC4)CC3)c2c1 (stereo partly drawn) [Example 6-13, 4-[(trans-4-{4-[(3-fluorocyclobutyl)carbonyl]piperazin-1-yl}cyclohexyl)amino] quinazoline-6-carbonitrile]"
6,10,"N#Cc1ccc2ncnc(N[C@H]3CC[C@H](N4CCN(C(=O)C5CCC5)CC4)CC3)c2c1 [Example 6-15, 4-({trans-4-[4-(cyclobutylcarbonyl)piperazin-1-yl]cyclohexyl}amino) quinazoline-6-carbonitrile]"
7,10,"N#Cc1ccc2ncnc(N[C@H]3CC[C@H](N4CCN(C(=O)C5CCCC5)CC4)CC3)c2c1 [Example 6-16, 4-({trans-4-[4-(cyclopentylcarbonyl)piperazin-1-yl]cyclohexyl}amino) quinazoline-6-carbonitrile]"
8,9,"N#Cc1ccc2ncnc(N[C@H]3CC[C@H](N4CCN(C(=O)CC5CC5)CC4)CC3)c2c1 [Example 6-17, 4-({trans-4-[4-(cyclopropylacetyl)piperazin-1-yl]cyclohexyl}amino) quinazoline-6-carbonitrile]"
9,10,"N#Cc1ccc2ncnc(N[C@H]3CC[C@H](N4CCN(C(=O)CC5COC5)CC4)CC3)c2c1 [Example 6-18, 4-({trans-4-[4-(oxetan-3-ylacetyl)piperazin-1-yl]cyclohexyl}amino) quinazoline-6-carbonitrile]"
10,8,"N#Cc1ccc2ncnc(N[C@H]3CC[C@H](N4CCN(C(=O)C(O)C5CC5)CC4)CC3)c2c1 (stereo partly drawn) [Example 6-20, 4-[(trans-4-{4-[cyclopropyl(hydroxy)acetyl]piperazin-1-yl}cyclohexyl)amino] quinazoline-6-carbonitrile]"
11,9,"N#Cc1ccc2ncnc(N[C@H]3CC[C@H](N4CCN(C(=O)CCO)CC4)CC3)c2c1 [Example 6-22, 4-({trans-4-[4-(3-hydroxypropanoyl)piperazin-1-yl]cyclohexyl}amino) quinazoline-6-carbonitrile]"
12,7,"N#Cc1ccc2ncnc(N[C@H]3CC[C@H](N4CCC(F)CC4)[C@@H]4C[C@@H]43)c2c1 [Example 7-4, 4-{[(1S,2S,5S,6R)-5-(4-fluoropiperidin-1-yl)bicyclo[4.1.0]hept-2-yl]amino}quinazoline-6-carbonitrile]"
